# Assay results reported in PubChem BioAssay AID1919017 (Molecular Pharmacology Branch, DTP, NCI, 2023).
# Tested on: SW1271 complex spheroids with HUVEC/MSC, growth, % test/control
# Experiment: Anticancer human tumor SW1271 cell line growth inhibition [AhR];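 note: spheroids exposed to agents for 7 days before readout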
# Details: for IC50: curve of first compound; for viability, T/C: stronger effect = lower value
# Method in brief: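 Agents were dosed in half-log steps down from roughly clinical Cmax, or from 10 microM where Cmax was unknown, alone and with AhR antagonists. Read-out: percent test/control growth of tumor spheroids containing HUVEC and MSC stromal cells.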
# [1] = second compound 0.1 µM, first compound 0.0316 µM
# [2] = second compound 0.1 µM, first compound 0.1 µM
# [3] = second compound 0.1 µM, first compound 0.316 µM
# [4] = second compound 0.1 µM, first compound 1 µM
# [5] = second compound 0.1 µM, first compound 3.16 µM
# [6] = second compound 0.1 µM, first compound 10 µM
# [7] = second compound 0.316 µM, first compound 0.0316 µM
# [8] = second compound 0.316 µM, first compound 0.1 µM
# [9] = second compound 0.316 µM, first compound 0.316 µM
# [10] = second compound 0.316 µM, first compound 1 µM
# [11] = second compound 0.316 µM, first compound 3.16 µM
# [12] = second compound 0.316 µM, first compound 10 µM
# [13] = second compound 1 µM, first compound 0.0316 µM
# [14] = second compound 1 µM, first compound 0.1 µM
# [15] = second compound 1 µM, first compound 0.316 µM
# [16] = second compound 1 µM, first compound 1 µM
# [17] = second compound 1 µM, first compound 3.16 µM
# [18] = second compound 1 µM, first compound 10 µM
# [19] = second compound 3.16 µM, first compound 0.0316 µM
# [20] = second compound 3.16 µM, first compound 0.1 µM
# [21] = second compound 3.16 µM, first compound 0.316 µM
# [22] = second compound 3.16 µM, first compound 1 µM
# [23] = second compound 3.16 µM, first compound 3.16 µM
# [24] = second compound 3.16 µM, first compound 10 µM
# [25] = second compound 10 µM, first compound 0.0316 µM
# [26] = second compound 10 µM, first compound 0.1 µM
# [27] = second compound 10 µM, first compound 0.316 µM
# [28] = second compound 10 µM, first compound 1 µM
# [29] = second compound 10 µM, first compound 3.16 µM
# [30] = second compound 10 µM, first compound 10 µM
Compound,IC50 (second compound 0.1 µM),IC50 (second compound 0.316 µM),IC50 (second compound 1 µM),IC50 (second compound 3.16 µM),IC50 (second compound 10 µM),"viability, T/C [1]","viability, T/C [2]","viability, T/C [3]","viability, T/C [4]","viability, T/C [5]","viability, T/C [6]","viability, T/C [7]","viability, T/C [8]","viability, T/C [9]","viability, T/C [10]","viability, T/C [11]","viability, T/C [12]","viability, T/C [13]","viability, T/C [14]","viability, T/C [15]",further results
COc1cc(C2c3cc4c(cc3C(OC3OC5COC(C)OC5C(O)C3O)C3COC(=O)C23)OCO4)cc(OC)c1O (stereo not given) + Cc1cncc(-c2nc(NCCc3c[nH]c4ccccc34)c3ncn(C(C)C)c3n2)c1,> 10 µM,> 10 µM,> 10 µM,> 10 µM,< 0.0316 µM,81.6%,88.5%,68.1%,60.7%,63.6%,65.3%,86.1%,86.3%,67.4%,53.8%,66.1%,53.4%,96.2%,80.1%,79.2%,"viability, T/C [16]: 80.9%; viability, T/C [17]: 55.9%; viability, T/C [18]: 72%; viability, T/C [19]: 89.8%; viability, T/C [20]: 99.2%; viability, T/C [21]: 112%; viability, T/C [22]: 76.2%; viability, T/C [23]: 72.4%; viability, T/C [24]: 70.6%; viability, T/C [25]: 41.5%; viability, T/C [26]: 39.6%; viability, T/C [27]: 41%; viability, T/C [28]: 35.4%; viability, T/C [29]: 32.6%; viability, T/C [30]: 29.1%"
CC1COCCN1c1cc(C2(S(C)(=N)=O)CC2)nc(-c2ccnc3[nH]ccc23)n1 (stereo not given) + Cc1ccccc1N=Nc1ccc(NC(=O)c2ccnn2C)c(C)c1,> 10 µM,> 10 µM,> 10 µM,> 10 µM,> 10 µM,87.6%,105%,90.8%,119%,89.4%,52.5%,100%,95.2%,96.9%,106%,67.6%,58.8%,96.8%,111%,106%,"viability, T/C [16]: 89.6%; viability, T/C [17]: 90.4%; viability, T/C [18]: 56.7%; viability, T/C [19]: 97.5%; viability, T/C [20]: 112%; viability, T/C [21]: 104%; viability, T/C [22]: 96.7%; viability, T/C [23]: 70%; viability, T/C [24]: 61.1%; viability, T/C [25]: 102%; viability, T/C [26]: 91.8%; viability, T/C [27]: 104%; viability, T/C [28]: 95.4%; viability, T/C [29]: 68.1%; viability, T/C [30]: 54.9%"
